Measurements published in paper PMC5665883, “Antithrombotic properties of JJ1, a potent and novel thrombin inhibitor” (Scientific Reports, 2017).
pKi: −log10 of the molar value. Marks after values point to notes of the source that are not given here.

Assays:
Trypsin = assay: Chromogenic substrate assay, Ki (Dixon); type: biochemical, human; conditions: Trypsin; mean ± SD (n = 5)
Procedure: Chromogenic substrate assays were performed using a Labsystems IEMS (Cergy Pontoise, France) microtiter plate reader. K i values were calculated according to the method of Dixon[65]. In each assay, the compound was tested at a minimum of seven concentrations, in duplicate, to obtain an inhibition curve. The following general procedures were adopted for each assay. In a 96-well microtiter plate, 25 μL of inhibitor solution or buffer was added to 50 μL of substrate. The enzyme solution (25 μL) was added just before the plate was placed in the microtiter plate reader for 1 h at 37 °C. The hydrolysis of the substrate yields p-nitroaniline, which was continuously monitored spectrophotometrically at 405 nm. The maximal initial reaction rates were calculated and expressed as millioptical density per minute.

Streptokinase = Streptokinase (Homo sapiens, UniProt P00747); assay: Chromogenic substrate assay, Ki (Dixon); type: biochemical
human plasma = assay: In vitro PT clotting time; type: biochemical; conditions: for PT / PT (INR): in vitro
Procedure: (§1) The aPTT and PT were determined using a Thrombotimer (Behnk Elektronik, Norderstedt, Germany) in accordance with the manufacturer’s instructions and as previously described. Briefly, citrated normal human plasma (90 μL) was mixed with 10 μL JJ1 and incubated for 1 min at 37 °C. Subsequently, the aPTT assay reagent (100 μL) was added, the plasma sample was incubated for an additional 1 min at 37 °C, 20 mM CaCl2 (100 μL) was added, and the clotting times were recorded. For the PT assays, citrated normal human plasma (90 μL) was mixed with 10 μL JJ1 stock solution and was incubated for 1 min at 37 °C. The PT assay reagent (200 μL), which had been pre-incubated for 10 min at 37 °C, was subsequently added and the clotting time was recorded. The PT results were expressed in seconds and as International Normalized Ratios (INR): INR = (PT sample/PT control)^ISI, where ISI = international sensitivity index. The aPTT results were also expressed in seconds. All experimental protocols (KNUH 2012-01-010) were approved by the Institutional Review Board of Kyungpook National University Hospitals (Daegu, Republic of Korea).

[1] = Ex vivo aPTT clotting time; type: in vivo, C57BL/6 mice; conditions: mice, i.v., 1 h after administration
Procedure: as §1
Male C57BL/6 mice were fasted overnight. Each compound was dissolved in 0.5% DMSO and administered by i.v. injection. One hour after administration, arterial blood samples (0.1 mL) were collected in 3.8% sodium citrate (1:10, v/v) for the ex vivo aPTT and PT determination. The clotting times were determined as described above.

human platelets = assay: In vitro thrombin-induced platelet aggregation; type: cell-based; conditions: washed human platelets
Procedure: The in vitro platelet aggregation study was performed according to a previously reported method[59],[62]. Washed human platelets were incubated with the indicated concentration of JJ1 in DMSO for 1, 3, 5, or 10 min and subsequently stimulated by thrombin in 0.9% saline solution at 37 °C for 5 min. Platelet aggregation was recorded using an aggregometer (Chronolog, Havertown, PA, USA). For the ex vivo aggregation assay, male mice were fasted overnight and the indicated concentration of JJ1 in DMSO was administered by i.v. injection. After 24 h, PRP (10^9 platelets/mL) in a total volume of 240 μL was incubated at 37 °C for 1.5 min in the aggregometer with continuous stirring at 1000 rpm and subsequently stimulated with thrombin. Platelet aggregation was recorded as described above.

[2] = Pharmacokinetics after i.v. injection; type: in vivo; conditions: mouse, plasma, iv, male C57BL/6 mice, 2 mg/kg, fasting
Procedure: The penile veins of male C57BL/6 mice were injected with 2 mg/kg JJ1. Approximately 50 μL of blood was obtained from the tail vein immediately before and at 5, 15, 30, 60, and 180 min after injection; 80 μL acetonitrile and internal standard solution (reserpine) were then added to these samples, and plasma samples (10 μL) were prepared by centrifugation of the blood at 13,000 rpm for 15 min at 4 °C. An aliquot (2 μL) of the supernatant was then injected into an HPLC column. The pharmacokinetic parameters were determined using the standard non-compartmental method. The area under the curve for serum was calculated using the log linear trapezoidal method on WinNonlin (version 2.0; Scientific Consulting, KY, USA). The samples were analyzed using an Accela^TM LC system coupled to a TSQ Vantage triple quadrupole mass spectrometer (Thermo Fisher Scientific Inc., USA) equipped with a HESI-II Spray source. For the LC analysis, an ACE® 5C18, 3 μm (2.1 × 50 mm) column was used. The mobile phases were (A) LC-grade® water containing 0.1% formic acid, and (B) LC grade acetonitrile containing 0.1% formic acid (B). This initial composition was increased to 95% solvent (B) for 3 minutes. The gradient program for HPLC used a flow rate of […]. […]

[3] = FeCl3-induced arterial thrombosis model; type: in vivo, C57BL/6 mice; conditions: mice, i.v.
Procedure: The FeCl3-induced thrombosis mouse model was established as previously described. Male C57BL/6 mice were fasted overnight and were administered JJ1 in DMSO by intravenous injection. Then, mice were anesthetized using 3% isoflurane (Forane®, Choongwae Pharma. Corp., Seoul, Korea) and injected intravenously with 0.1 mL 0.1% rhodamine 6 G (Sigma). A testicular artery (200 μm in diameter) was carefully exposed and a cotton thread (200 μm in diameter) saturated with 0.25 mol/L FeCl3 was applied to the adventitial surface. After 5 min, the cotton thread was removed, and the wound was flushed with saline solution. Thrombus formation was monitored at 35 °C by 3-dimensional imaging as previously described. The size and time of thrombus formation were monitored, and the findings were scored as follows: no thrombus, 0; small thrombus (50 μm × 75 μm), 1; medium-sized thrombus (100 μm × 150 μm), 2; large thrombus (200 μm × 300 μm), 3. The time from FeCl3-mediated endothelial injury to occlusion of the testicular artery by a large thrombus was measured.

Streptokinase, sequence (P00747 581-810 limits assumed): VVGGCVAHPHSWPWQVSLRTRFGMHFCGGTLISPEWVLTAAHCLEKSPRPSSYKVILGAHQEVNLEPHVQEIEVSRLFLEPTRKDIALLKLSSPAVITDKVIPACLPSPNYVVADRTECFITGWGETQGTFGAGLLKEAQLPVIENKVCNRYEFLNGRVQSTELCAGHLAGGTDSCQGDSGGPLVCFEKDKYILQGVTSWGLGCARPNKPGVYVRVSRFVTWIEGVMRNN

c1ccc2c(NC3CCCC3)nc(Nc3ccncc3)nc2c1 [JJ1]
pKi (Trypsin): < 3.60 | Selectivity ratio (Streptokinase; K i Streptokinase/K i α-thrombin): >10,000 | pKi (Streptokinase; Streptokinase): < 3.60 | Concentration that doubled the clotting time, PT assay (human plasma): 1.61 µM | PT (human plasma; 0.05 μM): 12.1 ± 0.2 s | PT (INR) (human plasma; 0.05 μM): 1.04 INR | PT (human plasma; 0.1 μM): 11.7 ± 0.4 s | PT (INR) (human plasma; 0.1 μM): 0.96 INR | PT (human plasma; 0.2 μM): 12.7 ± 0.5 s | PT (INR) (human plasma; 0.2 μM): 1.17 INR | PT (human plasma; 0.5 μM): 15.4 ± 0.4 s | PT (INR) (human plasma; 0.5 μM): 1.86* INR | PT (human plasma; 1.0 μM): 21.4 ± 0.5 s | PT (INR) (human plasma; 1.0 μM): 4.09* INR | PT (human plasma; 2.0 μM): 25.8 ± 0.3 s | PT (INR) (human plasma; 2.0 μM): 6.41* INR | PT (human plasma; 5.0 μM): 26.5 ± 0.4 s | PT (INR) (human plasma; 5.0 μM): 6.83* INR | aPTT ([1]; 0.31 μg/mouse): 31.9 ± 0.6 s | aPTT ([1]; 0.61 μg/mouse): 40.1 ± 1.1 s | aPTT ([1]; 1.23 μg/mouse): 49.4 ± 1.5 s | aPTT ([1]; 3.06 μg/mouse): 55.8 ± 1.2 s | Human platelet aggregation induced by thrombin (human platelets): significantly inhibited human platelet aggregation induced by thrombin in a concentration-dependent manner | AUC [2]: 6100 ng·h/mL | half-life [2]: 3.1 h | Growth of thrombi (time to large thrombus formation) ([3]; FeCl3-induced thrombosis): significantly slowed the growth of thrombi | Thrombus size at 60 min after FeCl3-induced endothelial injury [3]: reduced FeCl3-induced thrombus formation
